Our source for the TGI and GI50 values is PubChem BioAssay (NCI).

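Cultured in 96-well plates, cells were exposed to test compound for 48 hours across five concentrations. GI50 marks 50% less growth. TGI marks complete inhibition of growth.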

Among the test systems are DU-145 prostate; KM12 colon; HL-60(TB) leukemia; NCI-H23 lung; LOX IMVI melanoma; BT-549 breast; HCC-2998 colon; IGROV1 ovarian; NCI/ADR-RES ovarian; UACC-62 melanoma.
Assay in all cases: NCI anticancer screen, dose series, 48 h

As for `NS(=O)(=O)c1ccc(NC(=O)c2cccc3cc4ccccc4nc23)cc1`, the TGI in the test with DU-145 prostate was above 100 µM; in the test with KM12 colon, above 100 µM; in the test on HL-60(TB) leukemia it was above 100 µM; in the test on NCI-H23 lung, above 100 µM; with LOX IMVI melanoma it was above 97.3 µM; with BT-549 breast, above 100 µM. Besides, the TGI with HCC-2998 colon, in the test with IGROV1 ovarian, in the test with NCI/ADR-RES ovarian and with UACC-62 melanoma was above 100 µM each time.
Consider `CS(=O)(=O)OCCN(CCOS(C)(=O)=O)c1ccc(C=O)cc1`, for which the TGI with DU-145 prostate was 7.17 µM; in the test on KM12 colon, 29.5 µM; with HL-60(TB) leukemia, 35.4 µM; in the test on NCI-H23 lung, 12.6 µM; in the test on LOX IMVI melanoma, 21.1 µM; with BT-549 breast, above 69.8 µM. The TGI is 8.36 µM with HCC-2998 colon, 43.3 µM in the test with IGROV1 ovarian, above 80.8 µM in the test with NCI/ADR-RES ovarian and 14.5 µM in the test with UACC-62 melanoma.
For `O=C(Nc1cccc(-n2cc(-c3ccncc3)c(-c3ccc(O)c(Cl)c3)n2)c1)Nc1cccc(C(F)(F)F)c1`, the GI50 with DU-145 prostate is 3.01 µM; with KM12 colon it was 1.72 µM; with HL-60(TB) leukemia it was 2.83 µM; in the test on NCI-H23 lung it was 2.59 µM; in the test on LOX IMVI melanoma, 2.11 µM; in the test on BT-549 breast, 1.72 µM. The GI50 was 4.3 µM with HCC-2998 colon, 2.47 µM in the test with IGROV1 ovarian, 3.24 µM in the test on NCI/ADR-RES ovarian and 2.28 µM in the test on UACC-62 melanoma. For the same compound, the TGI came out at 11.8 µM in the test with DU-145 prostate; 3.48 µM in the test with KM12 colon; 7.49 µM in the test with HL-60(TB) leukemia; 8.81 µM with NCI-H23 lung; 5.87 µM in the test on LOX IMVI melanoma; 4.08 µM with BT-549 breast. Moreover, the TGI in the test with HCC-2998 colon is 37.5 µM; in the test on IGROV1 ovarian, 5.98 µM; with NCI/ADR-RES ovarian it was above 100 µM; in the test on UACC-62 melanoma, 5.5 µM.
As to `Cc1cc(N(CCCl)CCCl)ccc1/C=N/NC(=O)Cc1cc(=O)oc2cc(O)ccc12`, the TGI is above 100 µM with DU-145 prostate; 36.6 µM in the test with KM12 colon; 33.5 µM in the test with HL-60(TB) leukemia; 58.6 µM in the test with NCI-H23 lung; 26.7 µM in the test with LOX IMVI melanoma; 34.7 µM in the test on BT-549 breast. Further, the TGI was 72 µM in the test on HCC-2998 colon, 40.7 µM in the test on IGROV1 ovarian, above 100 µM in the test on NCI/ADR-RES ovarian and 13.2 µM in the test with UACC-62 melanoma.
As to `CNCCCNCCCN1C(=O)c2ccc3c4c(ccc(c24)C1=O)C(=O)N(CCCNCc1ccccc1OC)C3=O`, the GI50 in the test with DU-145 prostate is 1.05 µM; in the test with KM12 colon, 1.18 µM; in the test with HL-60(TB) leukemia, 2 µM; in the test with NCI-H23 lung, 1.26 µM; in the test with LOX IMVI melanoma, 1.52 µM; in the test with BT-549 breast, 5.03 µM. The GI50 in the test on HCC-2998 colon is 1.93 µM; with IGROV1 ovarian, 1.45 µM; with NCI/ADR-RES ovarian, 12.1 µM; in the test on UACC-62 melanoma, 1.52 µM. Besides, the TGI in the test on DU-145 prostate amounted to 2.39 µM; in the test with KM12 colon it was 3.36 µM; with HL-60(TB) leukemia, 7.09 µM; with NCI-H23 lung it was 4.12 µM; with LOX IMVI melanoma it was 9.75 µM; with BT-549 breast, 18.7 µM. Moreover, the TGI in the test with HCC-2998 colon stood at 6.42 µM; in the test with IGROV1 ovarian it was 6.04 µM; in the test on NCI/ADR-RES ovarian it was 71.1 µM; in the test on UACC-62 melanoma, 3.51 µM.
Consider `CCOC(=O)Nc1nc2c(C)cccc2s1`, for which the GI50 in the test on DU-145 prostate is 51.1 µM; in the test with KM12 colon, 56.8 µM; with HL-60(TB) leukemia, 29.9 µM; in the test with NCI-H23 lung, 38.8 µM; with LOX IMVI melanoma, 49.7 µM; with BT-549 breast it was 35.8 µM. Moreover, the GI50 in the test on HCC-2998 colon is 64.7 µM; in the test on IGROV1 ovarian it was 46 µM; with NCI/ADR-RES ovarian it was 38.9 µM; in the test with UACC-62 melanoma, 36 µM. Also, the TGI with DU-145 prostate, in the test with KM12 colon, with HL-60(TB) leukemia, in the test with NCI-H23 lung, in the test on LOX IMVI melanoma and in the test on BT-549 breast was above 100 µM each time. Moreover, the TGI in the test with HCC-2998 colon, in the test with IGROV1 ovarian, with NCI/ADR-RES ovarian and in the test on UACC-62 melanoma was above 100 µM each time.
`CN(C)CCCn1c2nc(=O)[nH]c(=O)c-2nc2cc(Cl)c(Cl)cc21`: the GI50 was 16.4 µM with DU-145 prostate; 8.2 µM in the test with KM12 colon; 3.83 µM in the test with HL-60(TB) leukemia; 8.04 µM in the test on NCI-H23 lung; 2.37 µM with LOX IMVI melanoma; 19.5 µM with BT-549 breast. Further, the GI50 in the test with HCC-2998 colon is 12.5 µM; with IGROV1 ovarian, 4.65 µM; in the test on NCI/ADR-RES ovarian it was 7.9 µM; in the test on UACC-62 melanoma, 4.22 µM. Besides, the TGI in the test with DU-145 prostate was determined as 30 µM; with KM12 colon, 26 µM; in the test with HL-60(TB) leukemia, 9.97 µM; in the test on NCI-H23 lung, 23.5 µM; with LOX IMVI melanoma, 7.36 µM; in the test with BT-549 breast, 34.7 µM. The TGI with HCC-2998 colon is 27.9 µM; in the test with IGROV1 ovarian it was 13.9 µM; in the test on NCI/ADR-RES ovarian it was above 100 µM; in the test on UACC-62 melanoma, 14.9 µM.
As to `COc1ccccc1/C=C/C(=O)/C=C/c1ccccc1OC`, the GI50 in the test on DU-145 prostate is 1.96 µM; with KM12 colon it was 1.57 µM; with HL-60(TB) leukemia it was 2.69 µM; with NCI-H23 lung, 1.75 µM; in the test on LOX IMVI melanoma, 1.53 µM; in the test with BT-549 breast, 1.6 µM. For the same compound, the GI50 in the test with HCC-2998 colon was 1.92 µM; with IGROV1 ovarian, 1.6 µM; with NCI/ADR-RES ovarian it was 2.53 µM; in the test with UACC-62 melanoma, 1.65 µM. Also, the TGI was determined as 4.15 µM in the test on DU-145 prostate; 3.39 µM in the test with KM12 colon; 8.45 µM in the test on HL-60(TB) leukemia; 3.92 µM with NCI-H23 lung; 3.01 µM in the test with LOX IMVI melanoma; 3.19 µM in the test on BT-549 breast. For the same compound, the TGI turned out to be 3.37 µM in the test on HCC-2998 colon, 3.2 µM in the test with IGROV1 ovarian, 8.98 µM in the test on NCI/ADR-RES ovarian and 3.41 µM in the test with UACC-62 melanoma.
As to `N#Cc1ccc2c(c1)C(=O)c1c-2n(CCCN)c(=O)c2cc([N+](=O)[O-])ccc12`, the GI50 with DU-145 prostate is 0.11 µM; in the test with KM12 colon it was 1.2 µM; in the test with HL-60(TB) leukemia it was 1.37 µM; in the test on NCI-H23 lung, 0.353 µM; in the test with LOX IMVI melanoma it was 0.0696 µM; in the test with BT-549 breast, 0.847 µM. The GI50 in the test on HCC-2998 colon is 0.101 µM; in the test on IGROV1 ovarian, 0.0712 µM; in the test with NCI/ADR-RES ovarian, 0.359 µM; with UACC-62 melanoma, 0.109 µM. The TGI was 1.41 µM in the test on DU-145 prostate; 3.89 µM in the test on KM12 colon; 3.56 µM in the test on HL-60(TB) leukemia; 2.39 µM in the test with NCI-H23 lung; 1.08 µM with LOX IMVI melanoma; 2.29 µM in the test with BT-549 breast. Also, the TGI with HCC-2998 colon worked out at 0.447 µM; in the test with IGROV1 ovarian, 1.24 µM; in the test on NCI/ADR-RES ovarian, 3.19 µM; in the test with UACC-62 melanoma, 1.39 µM.
